Measured values reported in paper PMC11971462, “Generation and validation of a novel multitarget small molecule in glioblastoma” (Cell Death & Disease, 2025).

System: GNS166 cells
Assay: Label-free proteomics differential expression
Type: cell-based, human
Method: Proteomic studies were performed by the Proteomics Facility of the CIC bioGUNE by label-free relative quantification on nLC MS/MS. […] In both approaches, the top 20 enriched terms were plotted and the pathways were clustered using divisive hierarchical clustering based on pairwise Jaccard distances.

C#CCN(Cc1cc2cc(OCCCN3CCCCC3)ccc2n1S(=O)(=O)c1ccccc1)C(=O)CCCCCCC(=O)NO [DDI]
LogFC STOM_HUMAN (protein P27105 GN=STOM): 1.045
LogFC CD82_HUMAN (protein P27701 GN=CD82): -1.866
Direction PYR1_HUMAN (protein P27708): Down
LogFC PYR1_HUMAN (protein P27708): -0.3818
LogFC GSTM2_HUMAN (protein P28161 GN=GSTM2): 1.203
Direction DPOD1_HUMAN (protein P28340): Down
LogFC DPOD1_HUMAN (protein P28340): -0.5649
LogFC GRAN_HUMAN (protein P28676 GN=GCA): 2.772
Direction CD34_HUMAN (protein P28906): Down
LogFC CD34_HUMAN (protein P28906): -1.0921
LogFC TPP2_HUMAN (protein P29144 GN=TPP2): 0.5124
LogFC CCN2_HUMAN (protein P29279 GN=CCN2): 1.704
Direction EPHA2_HUMAN (protein P29317): Down
LogFC EPHA2_HUMAN (protein P29317): -1.4702
LogFC AL4A1_HUMAN (protein P30038 GN=ALDH4A1): 0.9924
LogFC BLVRB_HUMAN (protein P30043 GN=BLVRB): 1.9711
LogFC CDC27_HUMAN (protein P30260 GN=CDC27): -0.6942
LogFC CCND3_HUMAN (protein P30281 GN=CCND3): 1.575
Direction NMT1_HUMAN (protein P30419): Down
LogFC NMT1_HUMAN (protein P30419): -0.6586
Direction UFO_HUMAN (protein P30530): Down
LogFC UFO_HUMAN (protein P30530): -2.709
Direction ILEU_HUMAN (protein P30740): Down
LogFC ILEU_HUMAN (protein P30740): -0.3615
Direction RIR2_HUMAN (protein P31350): Down
LogFC RIR2_HUMAN (protein P31350): -2.735
Direction DNJA1_HUMAN (protein P31689): Down
LogFC DNJA1_HUMAN (protein P31689): -0.6634
LogFC AKT1_HUMAN (protein P31749 GN=AKT1): -0.2725
Direction TF2H1_HUMAN (protein P32780): Down
LogFC TF2H1_HUMAN (protein P32780): -0.6552
LogFC TTK_HUMAN (protein P33981 GN=TTK): -1.092
LogFC VATE1_HUMAN (protein P36543 GN=ATP6V1E1): 1.641
LogFC PP1G_HUMAN (protein P36873 GN=PPP1CC): 0.989
LogFC GNL1_HUMAN (protein P36915 GN=GNL1): 0.9003
Direction COIL_HUMAN (protein P38432): Down
LogFC COIL_HUMAN (protein P38432): -1.999
LogFC LICH_HUMAN (protein P38571 GN=LIPA): 4.157
LogFC VATA_HUMAN (protein P38606 GN=ATP6V1A): 1.1187
Direction COIA1_HUMAN (protein P39060): Down
LogFC COIA1_HUMAN (protein P39060): -1.248
LogFC MDHC_HUMAN (protein P40925 GN=MDH1): 0.224
LogFC IF2G_HUMAN (protein P41091 GN=EIF2S3): 0.129
LogFC EIF2D_HUMAN (protein P41214 GN=EIF2D): -1.485
Direction UBA7_HUMAN (protein P41226): Down
LogFC UBA7_HUMAN (protein P41226): -1.657
LogFC IPP2_HUMAN (protein P41236 GN=PPP1R2): 1.34
LogFC CSK_HUMAN (protein P41240 GN=CSK): -0.3935
LogFC LAP2A_HUMAN (protein P42166 GN=TMPO): -1.129
LogFC LAP2B_HUMAN (protein P42167 GN=TMPO): -0.9256
LogFC STAT1_HUMAN (protein P42224 GN=STAT1): 0.5798
LogFC PK3CA_HUMAN (protein P42336 GN=PIK3CA): -1.283
LogFC MTOR_HUMAN (protein P42345 GN=MTOR): -0.7122
LogFC CNDD3_HUMAN (protein P42695 GN=NCAPD3): -2.052
LogFC THIM_HUMAN (protein P42765 GN=ACAA2): 1.09
Direction KI67_HUMAN (protein P46013): Down
LogFC KI67_HUMAN (protein P46013): -1.787
LogFC ATRX_HUMAN (protein P46100 GN=ATRX): -0.9089
Direction IF2M_HUMAN (protein P46199): Down
LogFC IF2M_HUMAN (protein P46199): -0.8269
LogFC MP2K3_HUMAN (protein P46734 GN=MAP2K3): 1.1042
Direction STT3A_HUMAN (protein P46977): Down
LogFC STT3A_HUMAN (protein P46977): -0.5679
LogFC PA24A_HUMAN (protein P47712 GN=PLA2G4A): 2.918
LogFC IF1AX_HUMAN (protein P47813 GN=EIF1AX): 0.7555
Direction AGRE5_HUMAN (protein P48960): Down
LogFC AGRE5_HUMAN (protein P48960): -1.142
LogFC UB2R1_HUMAN (protein P49427 GN=CDC34): 1.5155
Direction SYHM_HUMAN (protein P49590): Down
LogFC SYHM_HUMAN (protein P49590): -1.4939
LogFC VPS41_HUMAN (protein P49754 GN=VPS41): 1.216
Direction NU153_HUMAN (protein P49790): Down
LogFC NU153_HUMAN (protein P49790): -1.0035
Direction DNLI3_HUMAN (protein P49916): Down
LogFC DNLI3_HUMAN (protein P49916): -1.6
LogFC GBG4_HUMAN (protein P50150 GN=GNG4): 2.6107
Direction SERPH_HUMAN (protein P50454): Down
LogFC SERPH_HUMAN (protein P50454): -1.017
Direction KNTC1_HUMAN (protein P50748): Down
LogFC KNTC1_HUMAN (protein P50748): -0.8446
LogFC BCAM_HUMAN (protein P50895 GN=BCAM): 1.4044
LogFC PLCD1_HUMAN (protein P51178 GN=PLCD1): 0.5988
LogFC SMCA2_HUMAN (protein P51531 GN=SMARCA2): -1.3906
Direction SMCA4_HUMAN (protein P51532): Down
LogFC SMCA4_HUMAN (protein P51532): -1.513
LogFC TPMT_HUMAN (protein P51580 GN=TPMT): 1.506
LogFC IRAK1_HUMAN (protein P51617 GN=IRAK1): -0.8883
Direction GPM6A_HUMAN (protein P51674): Down
LogFC GPM6A_HUMAN (protein P51674): -2.493
Direction STA5B_HUMAN (protein P51692): Down
LogFC STA5B_HUMAN (protein P51692): -2.183
LogFC PLXA3_HUMAN (protein P51805 GN=PLXNA3): 0.8663
Direction CCNH_HUMAN (protein P51946): Down
LogFC CCNH_HUMAN (protein P51946): -0.7175
LogFC UB2E1_HUMAN (protein P51965 GN=UBE2E1): -1.604
Direction IMA1_HUMAN (protein P52292): Down
LogFC IMA1_HUMAN (protein P52292): -0.7516
LogFC EFNB2_HUMAN (protein P52799 GN=EFNB2): 1.665
LogFC ARFP1_HUMAN (protein P53367 GN=ARFIP1): 1.754
Direction ACLY_HUMAN (protein P53396): Down
LogFC ACLY_HUMAN (protein P53396): -0.3852
Direction SC5A3_HUMAN (protein P53794): Down
LogFC SC5A3_HUMAN (protein P53794): -1.548
LogFC SMTN_HUMAN (protein P53814 GN=SMTN): -1.694
LogFC HSP72_HUMAN (protein P54652 GN=HSPA2): 3.712
LogFC SNAA_HUMAN (protein P54920 GN=NAPA): 0.6489
Direction IF5_HUMAN (protein P55010): Down
LogFC IF5_HUMAN (protein P55010): -0.5429
LogFC S12A2_HUMAN (protein P55011 GN=SLC12A2): 0.5141
LogFC XPO2_HUMAN (protein P55060 GN=CSE1L): -0.4776
LogFC BI1_HUMAN (protein P55061 GN=TMBIM6): -0.6524
Direction MAZ_HUMAN (protein P56270): Down
LogFC MAZ_HUMAN (protein P56270): -1.733
Direction SC61G_HUMAN (protein P60059): Down
